Source: patent US20260137706A1, “METHODS OF TREATING INFLAMMATORY DISEASES” (INTERLINE THERAPEUTICS, INC., priority 2023, published 2026)

What was measured:
[1] = target: T1, binding of His-XIAP(BIR2)-avi fusion protein to GST-RIPK2 fusion protein (RIPK2/XIAP) (Homo sapiens, UniProt O43353); assay: RIPK2-XIAP binding competition PPI assay (TR-FRET); conditions: RIPK2/XIAP binding competition PPI assay; for Emax: Amax, read-out: PPI Amax bin; for IC50: read-out: PPI IC50 bin
T1 construct: made in house; host or cells: baculovirus infected Sf9 cells
Summary of the method: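 Compounds (in DMSO, 100-fold stock) incubated 120 min at 23 °C with 1 nM GST-RIPK2 (aa 1-310) and 25 nM His-XIAP(BIR2 aa 152-231)-avi, plus anti-His-XL665 and anti-GST-Tb, in pH 7.5 Tris buffer. Read-out: 665/520 nm emission ratio. Normalized to no-inhibitor (0%) and 50 nM GSK583 (−100%); Amax binned A–D.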

[2] = target: T2, GST-RIPK2 fusion protein (human RIPK2, amino acids 1-310) (Homo sapiens, UniProt O43353); assay: RIPK2 binding competition assay (TR-FRET, Tracer 199 displacement); conditions: 10 nM Tracer 199, 1 nM GST-RIPK2, read-out: RIPK2 IC50
T2 construct: made in house; host or cells: baculovirus infected Sf9 cells
Summary of the method: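 IC50 derived from the TR-FRET emission ratio (665/620 nm, 337 nm excitation), normalized with no-inhibitor and no-enzyme controls. Incubation 45 min at 22 °C, pH 7.5 Tris buffer, with final 10 nM tracer, 1 nM Sf9-expressed GST-RIPK2 fragment (aa 1-310) and 0.5 nM Tb-labelled anti-GST.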

[3] = system: NF-κB pathway (SEAP) in THP1-Dual cells; assay: THP-1 Dual cell SEAP assay (L18-MDP stimulated); assay type: cell-based; conditions: Homo sapiens, THP1-Dual, read-out: NF-κB THP1 IC50 bin
Summary of the method: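 IC50 values derive from non-linear regression of % inhibition, calculated against DMSO/L18-MDP-treated wells after media-only subtraction. NF-κB SEAP activity was read at OD 620-655 nm (QUANTI-Blue, 2 h, 37 °C) from supernatants of THP1-Dual cells. Cells had been compound-treated 30 min before overnight (20-24 h) stimulation with 10 ng/mL final L18-MDP.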

T1 sequence (O43353 1-310 limits assumed): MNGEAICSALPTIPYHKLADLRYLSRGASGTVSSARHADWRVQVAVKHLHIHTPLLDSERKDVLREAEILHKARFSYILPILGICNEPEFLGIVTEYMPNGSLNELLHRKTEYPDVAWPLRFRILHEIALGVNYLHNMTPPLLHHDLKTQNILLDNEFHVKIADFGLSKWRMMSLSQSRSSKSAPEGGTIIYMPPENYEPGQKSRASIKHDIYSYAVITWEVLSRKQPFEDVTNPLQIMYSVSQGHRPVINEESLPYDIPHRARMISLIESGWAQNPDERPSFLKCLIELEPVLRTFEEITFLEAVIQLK
T2 sequence (O43353 1-310): as the sequence (O43353 1-310 limits assumed) above

COc1cc2ncc(-c3cc(F)c(N)nc3F)n2cc1S(=O)(=O)C1(C)CCN(C2COC2)CC1 [Example 124, 3,6-difluoro-5-(7-methoxy-6-((4-methyl-1-(oxetan-3-yl)piperidin-4-yl)sulfonyl)imidazo[1,2-a]pyridin-3-yl)pyridin-2-amine]
Emax [1]: > 80%
IC50 [1]: > 20 nM
IC50 [2]: 2.5 to 20 nM
IC50 [3]: > 1000 nM

COc1cc2ncc(-c3cnn4c(C)c(C)ccc34)n2cc1S(=O)(=O)C(C)(C)C [Example 107, 6-(tert-butylsulfonyl)-3-(6,7-dimethylpyrazolo[1,5-a]pyridin-3-yl)-7-methoxyimidazo[1,2-a]pyridine]
Emax [1]: 55 to 80%
IC50 [1]: > 20 nM
IC50 [2]: > 20 nM
IC50 [3]: > 1000 nM

C[C@H](CO)Oc1cc2ncc(-c3cc(Cl)c(N)nc3F)n2cc1S(=O)(=O)C(C)(C)C [Example 258, (R)-2-((3-(6-amino-5-chloro-2-fluoropyridin-3-yl)-6-(tert-butylsulfonyl)imidazo [1,2-a]pyridin-7-yl)oxy)propan-1-ol]
Emax [1]: > 80%
IC50 [1]: 2.5 to 20 nM
IC50 [2]: 2.5 to 20 nM
IC50 [3]: 250 to 1000 nM

CC(C)(C)S(=O)(=O)c1cn2c(-c3cc(F)c(N)nc3F)cnc2cc1OCC1(CO)COC1 [Example 49, (3-(((3-(6-amino-2,5-difluoropyridin-3-yl)-6-(tert-butylsulfonyl)imidazo[1,2-a]pyridin-7-yl)oxy)methyl)oxetan-3-yl)methanol]
Emax [1]: > 80%
IC50 [1]: 2.5 to 20 nM
IC50 [2]: 2.5 to 20 nM
IC50 [3]: 250 to 1000 nM

COc1cc2ncc(-c3cccc(NS(=O)(=O)C4CCNC4)c3)n2cc1S(=O)(=O)C(C)(C)C (centres unmarked) [Example 154, N-(3-(6-(tert-butylsulfonyl)-7-methoxyimidazo[1,2-a]pyridin-3-yl)phenyl)pyrrolidine-3-sulfonamide]
Emax [1]: > 80%
IC50 [1]: 2.5 to 20 nM
IC50 [2]: 2.5 to 20 nM
IC50 [3]: > 1000 nM

Cn1cc(COc2cc3ncc(-c4cc(F)c(N)nc4F)n3cc2S(=O)(=O)C(C)(C)C)cn1 [Example 30, 5-(6-(tert-butylsulfonyl)-7-((1-methyl-1H-pyrazol-4-yl)methoxy)imidazo[1,2-a]pyridin-3-yl)-3,6-difluoropyridin-2-amine]
Emax [1]: > 80%
IC50 [1]: 2.5 to 20 nM
IC50 [2]: 2.5 to 20 nM
IC50 [3]: 50 to 250 nM

CC(C)(C)C(C)(O)c1cn2c(-c3cc(F)c(N)nc3F)cnc2cc1OCCO (single isomer, unassigned) [Example 295]
Emax [1]: > 80%
IC50 [1]: 2.5 to 20 nM
IC50 [2]: 2.5 to 20 nM
IC50 [3]: > 1000 nM

COc1cc2ncc(-c3ccc4nc(N)[nH]c4c3)n2cc1S(=O)(=O)C(C)(C)C [Example 98, 6-(6-(tert-butylsulfonyl)-7-methoxyimidazo[1,2-a]pyridin-3-yl)-1H-benzo[d]imidazol-2-amine]
Emax [1]: < 30%
IC50 [1]: > 20 nM
IC50 [2]: 2.5 to 20 nM
IC50 [3]: > 1000 nM

CC(C)(C)S(=O)(=O)c1cn2c(-c3cnc4[nH]cc(F)c4c3)cnc2cc1OCCO [Example 220, 2-((6-(tert-butylsulfonyl)-3-(3-fluoro-1H-pyrrolo[2,3-b]pyridin-5-yl)imidazo[1,2-a]pyridin-7-yl)oxy)ethan-1-ol]
Emax [1]: > 80%
IC50 [1]: < 1 nM
IC50 [2]: < 1 nM
IC50 [3]: < 50 nM

CCS(=O)(=O)Nc1cc(-c2cnc3cc(OC)c(C(=O)N4CCC(O)CC4)cn23)cc(F)c1OC [Example 192, N-(3-fluoro-5-(6-(4-hydroxypiperidine-1-carbonyl)-7-methoxyimidazo[1,2-a]pyridin-3-yl)-2-methoxyphenyl) ethanesulfonamide]
Emax [1]: > 80%
IC50 [1]: 2.5 to 20 nM
IC50 [2]: 2.5 to 20 nM
IC50 [3]: > 1000 nM

COc1cc2ncc(-c3cc(F)c4nc(C)cn4c3)n2cc1S(=O)(=O)C(C)(C)C [Example 109, 6-(tert-butylsulfonyl)-8′-fluoro-7-methoxy-2′-methyl-3,6′-biimidazo[1,2-a]pyridine]
Emax [1]: < 30%
IC50 [1]: > 20 nM
IC50 [2]: > 20 nM
IC50 [3]: > 1000 nM
